Molecules are shown by their SMILES.

The test system of this experiment is 2,5DHP dioxygenase (PicD). Nature of the experiment: spectrophotometric […],5DHP disappearance at […] nm. The format is biochemical, Alcaligenes faecalis. The conditions noted are these: 1 mM Fe2+; 50 mM PBS pH 7.0; 25 °C.

Take `Oc1ccc(O)nc1` [2,5DHP, 2,5-dihydroxypyridine]: the Km (in general, the concentration of substrate that gives half-maximal velocity) came to 65.7 ± 6.27 µM.

The values are drawn from doi:10.1101/530550v1 (biorxiv, 2019).
